Laboratory results published in publication PMC5761851, “Application of a phenotypic drug discovery strategy to identify biological and chemical starting points for inhibition of TSLP production in lung epithelial cells” (PLoS ONE, 2018).
Values joined by “and” are separate entries in the source; they are usually repeats but may differ in a detail not shown here. Identical values can stand only once. Like-named read-outs stand apart in the source and are kept apart here.

Assays:
PDE5 = biological target: T1, PDE5 (Homo sapiens, UniProt O76074); assay: BioPrint panel: PDE5; assay type: biochemical
T1 construct: Eurofins Pharma Discovery Services (contract assay service)
Description: General selectivity profiling was performed at Eurofins Pharma Discovery Services using the BioPrint® panel and reference database. The panel included 104 binding assays (non-peptide, peptide and nuclear receptors, ion channels and amine transporters) and 41 cell based and enzyme assays (including 10 kinases, 9 proteases and 5 phosphodiesterases) (S4 Table). More than 70% were human targets. Compound 4 was tested at a concentration of 1 μM in duplicate (10 μM for P-gp and CYP enzymes). The resulting bioactivity fingerprint was compared with a database of >2,500 BioPrint marketed drugs and reference compounds. IC50 values for selected activities were further characterized at 8 concentrations in duplicate.

A3 = biological target: T2, A3 (Homo sapiens, UniProt P0DMS8); assay: BioPrint panel: A3 (h) (agonist); assay type: binding; details: 1 micromolar, read-out: percentage of inhibition of activity
T2 construct: purchased Eurofins Pharma Discovery Services (KinaseProfiler; Cerep BioPrint panel)
Source text: (§1) Supplement pone.0189247.s004.xlsx, sheet "Bioprint Selectivity Panel" | column: %

H4 = biological target: T3, H4 (Homo sapiens, UniProt Q9H3N8); assay: BioPrint panel: H4 (h) (agonist); assay type: binding; details: 1 micromolar, read-out: percentage of inhibition of activity
T3 construct: purchased Eurofins Pharma Discovery Services (KinaseProfiler; Cerep BioPrint panel)
Source text: as §1

sst1 = biological target: T4, sst1 (Homo sapiens, UniProt P30872); assay: BioPrint panel: sst1 (h) (agonist); assay type: binding; details: 1 micromolar, read-out: percentage of inhibition of activity
T4 construct: purchased Eurofins Pharma Discovery Services (KinaseProfiler; Cerep BioPrint panel)
Source text: as §1

I1 = assay: BioPrint panel: I1 (agonist); assay type: binding; details: 1 micromolar
Source text: as §1

sigma (non-selective) = assay: BioPrint panel: sigma (non-selective) (h) (agonist); assay type: binding, human; details: 1 micromolar
Source text: as §1

alpha 2A = biological target: T5, alpha 2A (Homo sapiens, UniProt P08913); assay: BioPrint panel: alpha 2A (h) (antagonist); assay type: binding; details: 1 micromolar, read-out: percentage of inhibition of activity
T5 construct: purchased Eurofins Pharma Discovery Services (KinaseProfiler; Cerep BioPrint panel)
Source text: as §1

caspase-3 = biological target: T6, caspase-3 (Homo sapiens, UniProt P42574); assay: BioPrint panel: caspase-3 (h); assay type: biochemical; details: 1 micromolar, read-out: percentage of inhibition of activity
T6 construct: purchased Eurofins Pharma Discovery Services (KinaseProfiler; Cerep BioPrint panel)
Source text: as §1

NK1 = biological target: T7, NK1 (Homo sapiens, UniProt P25103); assay: BioPrint panel: NK1 (h) (agonist); assay type: binding; details: 1 micromolar, read-out: percentage of inhibition of activity
T7 construct: purchased Eurofins Pharma Discovery Services (KinaseProfiler; Cerep BioPrint panel)
Source text: as §1

ACE = biological target: T8, ACE (Homo sapiens, UniProt P12821); assay: BioPrint panel: ACE (h); assay type: biochemical; details: 1 micromolar
T8 construct: purchased Eurofins Pharma Discovery Services (KinaseProfiler; Cerep BioPrint panel)
Source text: as §1

[1] = biological target: T9, xanthine oxidase/ superoxide O2- scavenging (Bos taurus, UniProt P80457); assay: BioPrint panel: xanthine oxidase/ superoxide O2- scavenging; assay type: biochemical; details: 1 micromolar, read-out: percentage of inhibition of activity
T9 construct: purchased Eurofins Pharma Discovery Services (KinaseProfiler; Cerep BioPrint panel)
Source text: as §1

B2 = biological target: T10, B2 (Homo sapiens, UniProt P30411); assay: BioPrint panel: B2 (h) (agonist); assay type: binding; details: 1 micromolar, read-out: percentage of inhibition of activity
T10 construct: purchased Eurofins Pharma Discovery Services (KinaseProfiler; Cerep BioPrint panel)
Source text: as §1

M3 = biological target: T11, M3 (Homo sapiens, UniProt P20309); assay: BioPrint panel: M3 (h) (antagonist); assay type: binding; details: 1 micromolar, read-out: percentage of inhibition of activity
T11 construct: purchased Eurofins Pharma Discovery Services (KinaseProfiler; Cerep BioPrint panel)
Source text: as §1

acetylcholinesterase = biological target: T12, acetylcholinesterase (Homo sapiens, UniProt P22303); assay: BioPrint panel: acetylcholinesterase (h); assay type: biochemical; details: 1 micromolar, read-out: percentage of inhibition of activity
T12 construct: purchased Eurofins Pharma Discovery Services (KinaseProfiler; Cerep BioPrint panel)
Source text: as §1

NOP (ORL1) = biological target: T13, NOP (ORL1) (Homo sapiens, UniProt P41146); assay: BioPrint panel: NOP (ORL1) (h) (agonist); assay type: binding; details: 1 micromolar, read-out: percentage of inhibition of activity
T13 construct: purchased Eurofins Pharma Discovery Services (KinaseProfiler; Cerep BioPrint panel)
Source text: as §1

BB3 = biological target: T14, BB3 (Homo sapiens, UniProt P32247); assay: BioPrint panel: BB3 (h) (agonist); assay type: binding; details: 1 micromolar, read-out: percentage of inhibition of activity
T14 construct: purchased Eurofins Pharma Discovery Services (KinaseProfiler; Cerep BioPrint panel)
Source text: as §1

[2] = tested on: human primary cell culture and co-culture systems; assay: BioMAP Diversity PLUS phenotypic profiling; assay type: cell-based
Source text: The concept of the BioMAP® Diversity PLUS™ Platform™ (DiscoverX) has been previously described. The platform is comprised of 12 specific combinations of human primary cell culture and co-culture systems stimulated with a range of physiological and disease relevant stimuli (S2 Table). The resulting activities define a bioactivity fingerprint that was used to search for similar patterns of biological responses across the BioMAP® reference database of >3,000 compounds, biologics, approved drugs and experimental agents. Compound 4 was tested at 0.111 μM, 0.333 μM, 1 μM and 3 μM concentrations.

BZD (central) = assay: BioPrint panel: BZD (central) (agonist); assay type: binding; details: 1 micromolar
Source text: as §1

FLT-1 kinase (VEGFR1) = biological target: T15, FLT-1 kinase (VEGFR1) (Homo sapiens, UniProt P17948); assay: BioPrint panel: FLT-1 kinase (h) (VEGFR1); assay type: biochemical; details: 1 micromolar, read-out: percentage of inhibition of activity
T15 construct: purchased Eurofins Pharma Discovery Services (KinaseProfiler; Cerep BioPrint panel)
Source text: as §1

beta 2 = biological target: T16, beta 2 (Homo sapiens, UniProt P07550); assay: BioPrint panel: beta 2 (h) (agonist); assay type: binding; details: 1 micromolar, read-out: percentage of inhibition of activity
T16 construct: purchased Eurofins Pharma Discovery Services (KinaseProfiler; Cerep BioPrint panel)
Source text: as §1

H1 = biological target: T17, H1 (Homo sapiens, UniProt P35367); assay: BioPrint panel: H1 (h) (antagonist); assay type: binding; details: 1 micromolar, read-out: percentage of inhibition of activity
T17 construct: purchased Eurofins Pharma Discovery Services (KinaseProfiler; Cerep BioPrint panel)
Source text: as §1

GABAB(1b) = biological target: T18, GABAB(1b) (Homo sapiens, UniProt Q9UBS5); assay: BioPrint panel: GABAB(1b) (h) (antagonist); assay type: binding; details: 1 micromolar, read-out: percentage of inhibition of activity
T18 construct: purchased Eurofins Pharma Discovery Services (KinaseProfiler; Cerep BioPrint panel)
Source text: as §1

[3] = biological target: T19, choline transporter (CHT1) (Homo sapiens, UniProt Q9GZV3); assay: BioPrint panel: choline transporter (CHT1) (h) (antagonist); assay type: binding; details: 1 micromolar, read-out: percentage of inhibition of activity
T19 construct: purchased Eurofins Pharma Discovery Services (KinaseProfiler; Cerep BioPrint panel)
Source text: as §1

[4] = tested on: Ca2+ channel (L, dihydropyridine site); assay: BioPrint panel: Ca2+ channel (L, dihydropyridine site) (antagonist); assay type: binding; details: 1 micromolar
Source text: as §1

Syk = Syk (Homo sapiens, UniProt P43405); assay: Enzymatic Syk kinase activity assay; assay type: biochemical
CCR2 = biological target: T20, CCR2 (Homo sapiens, UniProt P41597); assay: BioPrint panel: CCR2 (h) (agonist); assay type: binding; details: 1 micromolar, read-out: percentage of inhibition of activity
T20 construct: purchased Eurofins Pharma Discovery Services (KinaseProfiler; Cerep BioPrint panel)
Source text: as §1

DNA-PK = biological target: T21, DNA-PK (Homo sapiens, UniProt P78527); assay: DNA-PK activity (SelectScreen); details: biochemical dose response, duplicate; read-out: Inhibition of indicated activity (IC50, μM): DNA-PK
T21 construct: Thermo Fisher Scientific SelectScreen (contract assay service)
Description: Kinase selectivity was evaluated at Eurofins Pharma Discovery Services using a selection of 125 representative kinases tested at a concentration of 10 μM in duplicate (S3 Table). IC50 values for selected activities were further characterized at 9 duplicate concentrations. DNA-PK activity was determined at the SelectScreen® Biochemical kinase Profiling Service of Thermo Fisher Scientific.

D3 = biological target: T22, D3 (Homo sapiens, UniProt P35462); assay: BioPrint panel: D3 (h) (antagonist); assay type: binding; details: 1 micromolar, read-out: percentage of inhibition of activity
T22 construct: purchased Eurofins Pharma Discovery Services (KinaseProfiler; Cerep BioPrint panel)
Source text: as §1

BACE-1 (beta -secretase) = biological target: T23, BACE-1 (beta -secretase) (Homo sapiens, UniProt P56817); assay: BioPrint panel: BACE-1 (h) (beta -secretase); assay type: biochemical; details: 1 micromolar, read-out: percentage of inhibition of activity
T23 construct: purchased Eurofins Pharma Discovery Services (KinaseProfiler; Cerep BioPrint panel)
Source text: as §1

5-HT3 = biological target: T24, 5-HT3 (Homo sapiens, UniProt P46098); assay: BioPrint panel: 5-HT3 (h) (antagonist); assay type: binding; details: 1 micromolar, read-out: percentage of inhibition of activity
T24 construct: purchased Eurofins Pharma Discovery Services (KinaseProfiler; Cerep BioPrint panel)
Source text: as §1

T22 sequence (P35462 whole entry): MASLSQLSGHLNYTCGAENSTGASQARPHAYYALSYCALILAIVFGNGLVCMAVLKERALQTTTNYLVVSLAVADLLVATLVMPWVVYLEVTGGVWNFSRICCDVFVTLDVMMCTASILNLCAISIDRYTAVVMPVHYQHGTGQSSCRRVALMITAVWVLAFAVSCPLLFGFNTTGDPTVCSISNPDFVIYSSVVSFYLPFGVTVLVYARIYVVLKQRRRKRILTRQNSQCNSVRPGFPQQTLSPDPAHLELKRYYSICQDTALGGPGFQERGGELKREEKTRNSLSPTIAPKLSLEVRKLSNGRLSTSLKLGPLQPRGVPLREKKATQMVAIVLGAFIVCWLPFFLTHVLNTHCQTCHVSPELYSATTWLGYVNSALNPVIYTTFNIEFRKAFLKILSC
T12 sequence (P22303 32-614): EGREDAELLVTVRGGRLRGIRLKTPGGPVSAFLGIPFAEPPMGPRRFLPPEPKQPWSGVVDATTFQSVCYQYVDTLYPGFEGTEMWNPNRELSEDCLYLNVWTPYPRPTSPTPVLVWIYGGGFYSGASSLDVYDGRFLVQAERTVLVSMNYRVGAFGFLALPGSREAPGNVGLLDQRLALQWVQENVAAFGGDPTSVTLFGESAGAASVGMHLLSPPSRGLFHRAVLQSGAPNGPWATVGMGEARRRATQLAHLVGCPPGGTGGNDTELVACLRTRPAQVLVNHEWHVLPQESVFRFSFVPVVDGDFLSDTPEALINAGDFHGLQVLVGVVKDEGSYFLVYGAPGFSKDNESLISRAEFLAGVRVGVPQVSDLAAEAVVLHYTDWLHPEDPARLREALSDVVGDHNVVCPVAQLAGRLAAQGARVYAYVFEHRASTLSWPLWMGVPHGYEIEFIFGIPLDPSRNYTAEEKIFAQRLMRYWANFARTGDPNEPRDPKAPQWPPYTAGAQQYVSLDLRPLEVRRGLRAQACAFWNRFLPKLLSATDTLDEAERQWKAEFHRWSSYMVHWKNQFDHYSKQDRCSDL
T3 sequence (Q9H3N8 whole entry): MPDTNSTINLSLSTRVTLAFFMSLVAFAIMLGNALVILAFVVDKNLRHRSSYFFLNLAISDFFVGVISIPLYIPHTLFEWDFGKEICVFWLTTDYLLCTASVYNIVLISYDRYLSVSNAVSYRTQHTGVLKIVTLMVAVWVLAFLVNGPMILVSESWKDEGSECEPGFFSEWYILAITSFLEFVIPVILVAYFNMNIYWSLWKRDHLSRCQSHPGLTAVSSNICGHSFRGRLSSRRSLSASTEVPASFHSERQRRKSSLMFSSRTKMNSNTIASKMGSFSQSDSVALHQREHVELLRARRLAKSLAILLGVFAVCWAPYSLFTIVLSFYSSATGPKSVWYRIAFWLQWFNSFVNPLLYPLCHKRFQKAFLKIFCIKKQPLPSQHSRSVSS
T16 sequence (P07550 whole entry): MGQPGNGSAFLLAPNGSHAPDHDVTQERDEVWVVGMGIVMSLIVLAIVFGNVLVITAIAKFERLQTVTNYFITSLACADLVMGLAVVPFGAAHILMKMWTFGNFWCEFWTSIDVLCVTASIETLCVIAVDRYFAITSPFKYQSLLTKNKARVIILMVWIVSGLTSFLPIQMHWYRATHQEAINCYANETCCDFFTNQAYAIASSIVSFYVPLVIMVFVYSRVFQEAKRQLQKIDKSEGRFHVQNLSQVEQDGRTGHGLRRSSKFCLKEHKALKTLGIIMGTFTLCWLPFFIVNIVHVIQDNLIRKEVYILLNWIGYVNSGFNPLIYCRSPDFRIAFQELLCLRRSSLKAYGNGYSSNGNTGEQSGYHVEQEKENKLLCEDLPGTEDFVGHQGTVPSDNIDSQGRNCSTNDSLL
T23 sequence (P56817 46-501): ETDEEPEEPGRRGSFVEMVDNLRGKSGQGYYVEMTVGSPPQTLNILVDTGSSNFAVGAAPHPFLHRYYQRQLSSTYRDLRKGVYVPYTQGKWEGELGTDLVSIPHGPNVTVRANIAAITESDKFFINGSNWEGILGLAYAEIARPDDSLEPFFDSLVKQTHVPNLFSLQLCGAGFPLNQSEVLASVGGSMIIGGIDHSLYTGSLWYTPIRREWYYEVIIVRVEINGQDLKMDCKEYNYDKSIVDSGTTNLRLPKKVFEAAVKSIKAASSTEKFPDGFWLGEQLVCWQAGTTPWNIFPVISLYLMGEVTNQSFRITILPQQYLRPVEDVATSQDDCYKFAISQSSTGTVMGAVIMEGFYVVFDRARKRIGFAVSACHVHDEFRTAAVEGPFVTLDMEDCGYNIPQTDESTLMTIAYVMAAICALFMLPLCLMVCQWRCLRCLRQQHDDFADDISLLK
T20 sequence (P41597 whole entry): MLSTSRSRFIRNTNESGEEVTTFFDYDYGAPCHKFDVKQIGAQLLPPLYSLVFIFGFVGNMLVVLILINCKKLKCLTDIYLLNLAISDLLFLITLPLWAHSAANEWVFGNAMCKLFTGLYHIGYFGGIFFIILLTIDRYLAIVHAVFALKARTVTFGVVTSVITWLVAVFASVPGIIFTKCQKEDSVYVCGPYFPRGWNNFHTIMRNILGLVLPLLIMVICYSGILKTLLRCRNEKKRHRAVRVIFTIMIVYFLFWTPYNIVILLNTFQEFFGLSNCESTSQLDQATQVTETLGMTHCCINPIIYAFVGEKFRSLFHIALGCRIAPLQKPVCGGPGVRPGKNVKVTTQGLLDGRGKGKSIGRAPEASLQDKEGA
T18 sequence (Q9UBS5 1-844 isoform Q9UBS5-2): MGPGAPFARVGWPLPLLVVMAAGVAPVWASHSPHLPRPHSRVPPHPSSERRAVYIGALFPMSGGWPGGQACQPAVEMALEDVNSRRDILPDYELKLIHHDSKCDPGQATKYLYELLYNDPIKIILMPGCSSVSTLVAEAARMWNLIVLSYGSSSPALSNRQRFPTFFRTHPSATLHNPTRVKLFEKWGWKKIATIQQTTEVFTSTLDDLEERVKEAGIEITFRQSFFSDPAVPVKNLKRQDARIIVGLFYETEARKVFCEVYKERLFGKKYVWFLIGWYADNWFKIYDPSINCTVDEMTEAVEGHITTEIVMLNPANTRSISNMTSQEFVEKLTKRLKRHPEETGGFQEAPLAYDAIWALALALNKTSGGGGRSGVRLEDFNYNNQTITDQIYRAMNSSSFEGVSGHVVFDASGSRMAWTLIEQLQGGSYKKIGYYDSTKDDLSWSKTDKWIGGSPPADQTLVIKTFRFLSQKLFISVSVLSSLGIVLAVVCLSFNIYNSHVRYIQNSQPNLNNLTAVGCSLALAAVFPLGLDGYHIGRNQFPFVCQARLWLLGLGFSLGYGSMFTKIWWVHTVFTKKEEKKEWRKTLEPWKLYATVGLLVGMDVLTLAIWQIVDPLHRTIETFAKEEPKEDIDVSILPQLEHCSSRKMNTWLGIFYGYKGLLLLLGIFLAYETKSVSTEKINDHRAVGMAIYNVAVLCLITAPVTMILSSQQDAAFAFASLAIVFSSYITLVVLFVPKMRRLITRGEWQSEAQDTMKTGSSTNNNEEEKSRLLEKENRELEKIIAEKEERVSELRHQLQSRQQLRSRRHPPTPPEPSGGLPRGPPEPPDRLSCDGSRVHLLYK
T5 sequence (P08913 whole entry): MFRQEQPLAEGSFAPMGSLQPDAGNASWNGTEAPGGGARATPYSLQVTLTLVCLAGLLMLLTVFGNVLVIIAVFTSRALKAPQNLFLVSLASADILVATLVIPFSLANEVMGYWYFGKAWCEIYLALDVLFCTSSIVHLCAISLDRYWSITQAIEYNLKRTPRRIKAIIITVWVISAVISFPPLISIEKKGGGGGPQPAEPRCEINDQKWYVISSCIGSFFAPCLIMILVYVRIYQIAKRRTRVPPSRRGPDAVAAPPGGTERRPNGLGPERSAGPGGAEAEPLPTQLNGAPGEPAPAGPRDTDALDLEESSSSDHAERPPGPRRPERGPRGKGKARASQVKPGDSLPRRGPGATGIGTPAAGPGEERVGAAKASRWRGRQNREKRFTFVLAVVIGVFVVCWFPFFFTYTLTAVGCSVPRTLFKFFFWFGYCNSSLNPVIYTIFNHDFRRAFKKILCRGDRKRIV
T19 sequence (Q9GZV3 whole entry): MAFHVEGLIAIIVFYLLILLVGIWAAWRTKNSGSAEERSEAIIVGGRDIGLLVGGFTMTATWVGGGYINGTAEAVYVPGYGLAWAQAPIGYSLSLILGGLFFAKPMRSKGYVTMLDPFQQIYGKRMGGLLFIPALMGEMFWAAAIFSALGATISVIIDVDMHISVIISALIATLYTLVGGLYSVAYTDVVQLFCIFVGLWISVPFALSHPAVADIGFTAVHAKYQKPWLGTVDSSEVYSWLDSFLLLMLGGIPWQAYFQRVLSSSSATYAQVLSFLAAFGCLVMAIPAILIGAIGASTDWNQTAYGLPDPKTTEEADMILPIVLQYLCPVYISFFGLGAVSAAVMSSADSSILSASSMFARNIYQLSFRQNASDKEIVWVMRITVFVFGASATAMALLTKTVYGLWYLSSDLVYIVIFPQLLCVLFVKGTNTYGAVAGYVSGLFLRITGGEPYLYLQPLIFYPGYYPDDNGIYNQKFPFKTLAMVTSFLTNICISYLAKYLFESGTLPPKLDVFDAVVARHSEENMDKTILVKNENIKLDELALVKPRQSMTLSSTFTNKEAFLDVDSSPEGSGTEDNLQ
T6 sequence (P42574 29-175 limits assumed): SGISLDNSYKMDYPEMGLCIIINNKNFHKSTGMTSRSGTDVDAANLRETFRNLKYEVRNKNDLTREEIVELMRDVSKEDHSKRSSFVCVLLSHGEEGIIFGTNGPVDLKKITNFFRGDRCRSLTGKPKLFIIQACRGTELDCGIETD
T6 sequence (P42574 176-277 limits assumed): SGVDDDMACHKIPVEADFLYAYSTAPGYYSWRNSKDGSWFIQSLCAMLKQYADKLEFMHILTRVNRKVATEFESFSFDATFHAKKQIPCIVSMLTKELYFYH

Molecule `Cn1cc(-c2cccc(-c3nc(C(=O)NC4C5CC6CC4CC(O)(C6)C5)c(N)nc3N)c2)cn1` (stereo not shown) [compound 4] has an inhibition at 1 µM (PDE5; 1 μM, read-out: inhibition of PDE5) of 61%, an inhibition at 1 µM (PDE5; 1 micromolar, PDE5 (h) (non-selective), read-out: percentage of inhibition of activity) of 61.5% and an IC50 (PDE5; dose response, duplicate, read-out: Inhibition of indicated activity (IC50, μM): PDE5) of 0.92 µM. The inhibition at 1 µM (A3) was 3.5%, the inhibition at 1 µM (H4) was -1.7% and the inhibition at 1 µM (sst1) was 1.2%. The “percentage of inhibition of activity” value (I1) was 11.5%, the “percentage of inhibition of activity” value (sigma (non-selective)) was 5.9% and the inhibition at 1 µM (alpha 2A) was 6.2%. The inhibition at 1 µM (caspase-3) was 3.9%, the inhibition at 1 µM (NK1) was 11.6% and the “percentage of inhibition of activity” value (ACE) was “INTER”. For the same molecule, the inhibition at 1 µM [1] was -15.3%, the inhibition at 1 µM (B2) was -1% and the inhibition at 1 µM (M3) was -0.3%. For the same molecule, the inhibition at 1 µM (acetylcholinesterase) was 6.2%, the inhibition at 1 µM (NOP (ORL1)) was 12.3% and the inhibition at 1 µM (BB3) was -3.6%. For the same molecule, the “cytotoxicity in the 3C system” value ([2]; 1 μM, 3C (HuVEC)) was “cytotoxicity”, the “cytotoxicity in BioMAP activated cellular systems” value ([2]; 3 μM) was “cytotoxic to B cells, fibroblasts and particularly endothelial cells” and the “IL-8 levels in lung fibroblasts (MyoF)” value ([2]; 0.111 and 0.333 μM) was “increased”. For the same molecule, the “VCAM-1 expression in endothelial cells (3C)” value ([2]; 0.111 and 0.333 μM) was “reduced”, the “anti-proliferative activity in BioMAP systems” value ([2]; 0.111 and 0.333 μM) was “anti-proliferative to endothelial cells, T and B cells, smooth muscle cells and fibroblasts” and the “sIL10 levels in the endothelial cell / macrophage system (/Mphg)” value ([2]; 0.111 and 0.333 μM) was “decreased”. The “sIL17A, sIL17F and sIL6 levels in the B / PMBC cell system (BT)” value ([2]; 0.111 and 0.333 μM) was “decreased”, the “endpoints inhibited out of 32 measured in the NHBE (BE3C) and NHBE / fibroblasts (B4FT) systems” value ([2]; 0.111–0.333 μM, tPA and Eotaxin 3) was 2 and the “percentage of inhibition of activity” value (BZD (central)) was -11.1%. It also gave an inhibition at 1 µM (FLT-1 kinase (VEGFR1)) of -4.8%, an inhibition at 1 µM (beta 2) of 1.6% and an inhibition at 1 µM (H1) of -0.5%. For the same molecule, the inhibition at 1 µM (GABAB(1b)) was 15.4%, the inhibition at 1 µM [3] was 3% and the “percentage of inhibition of activity” value [4] was -3.5%. For the same molecule, the IC50 (Syk; geometric mean, read-out: Activity in reference biochemical assay (IC50, μM) (95% CI) Syk) was 11.8 µM, the IC50 (Syk; individual values, read-out: Biochemical activity (IC50, mM) (Syk)) was 12.2 µM and 11.4 µM and the inhibition at 1 µM (CCR2) was 2.6%. The IC50 (DNA-PK) was 0.348 µM, the inhibition at 1 µM (D3) was -4.2% and the inhibition at 1 µM (BACE-1 (beta -secretase)) was -7.3%. For the same molecule, the inhibition at 1 µM (5-HT3) was -0.4%.
